Measured values published in US10385022B2, “3-amino-pyridines as GPBAR1 agonists” (HOFFMANN-LA ROCHE INC., priority 2011, dated 2019).

biological target: human GPBAR1 receptor (Homo sapiens (Human), UniProt Q8TDU6); assay: functional cAMP assay in CHO-dhfr(minus) cells expressing human GPBAR1 receptors; type: cell-based; details: CHO-dhfr(minus) cells expressing human GPBAR1, 30 min at 30° C.
Procedure: The final clone was verified by DNA sequence analysis. The plasmid was transfected into CHO cells deficient in dihydrofolate reductase activity (CHO-dhfr-) using Lipofectamine plus (Invitrogen). Clones were isolated in limited dilution conditions and identified by activities in the cAMP assay using lithocholic acid as agonist.
EC50 values were determined using Activity Base analysis (ID Business Solution, Limited). […] Specificity for GPBAR1 was tested in non-transfected CHO cells in the same assay as above.

Sequence of human GPBAR1 receptor (Q8TDU6 whole entry): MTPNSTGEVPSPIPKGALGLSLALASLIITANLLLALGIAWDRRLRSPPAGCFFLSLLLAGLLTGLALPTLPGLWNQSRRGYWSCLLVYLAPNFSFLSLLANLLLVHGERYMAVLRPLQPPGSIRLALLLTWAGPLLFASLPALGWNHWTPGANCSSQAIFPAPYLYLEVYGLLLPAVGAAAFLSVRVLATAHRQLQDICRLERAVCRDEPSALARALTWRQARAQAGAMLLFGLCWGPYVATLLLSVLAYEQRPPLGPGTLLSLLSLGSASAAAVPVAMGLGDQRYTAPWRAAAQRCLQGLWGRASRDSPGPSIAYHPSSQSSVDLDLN

| Structure (SMILES) | EC50 [µM] |
| --- | --- |
| CN(C(=O)c1cc(C(F)(F)F)cc(C(F)(F)F)c1)c1cnccc1-c1cccc(F)c1F [Example 40, N-[4-(2,3-Difluoro-phenyl)-pyridin-3-yl]-N-methyl-3,5-bis-trifluoromethyl-benzamide] | 0.107 |
| Cc1ccc(F)c(-c2ccncc2N(C)C(=O)c2cc(C(F)(F)F)cc(C(F)(F)F)c2)c1 [Example 42, N-[4-(2-Fluoro-5-methyl-phenyl)-pyridin-3-yl]-N-methyl-3,5-bis-trifluoromethyl-benzamide] | 0.119 |
| CN(C(=O)c1cc(C(F)(F)F)cc(C(F)(F)F)c1)c1cnccc1-c1ccc(F)cc1OCc1ccccc1 [Example 43, N-[4-(2-Benzyloxy-4-fluoro-phenyl)-pyridin-3-yl]-N-methyl-3,5-bis-trifluoromethyl-benzamide] | 2.05 |
| COc1ncc(Cl)cc1-c1ccncc1N(C)C(=O)c1cc(C(F)(F)F)cc(C(F)(F)F)c1 [Example 45, N-(5-Chloro-2-methoxy-[3,4′]bipyridinyl-3′-yl)-N-methyl-3,5-bis-trifluoromethyl-benzamide] | 0.302 |
| CC(C)Oc1ncccc1-c1ccncc1N(C)C(=O)c1cc(C(F)(F)F)cc(C(F)(F)F)c1 [Example 46, N-(2-Isopropoxy-[3,4′]bipyridinyl-3′-yl)-N-methyl-3,5-bis-trifluoromethyl-benzamide] | 0.924 |
| CN(C(=O)c1cc(C(F)(F)F)cc(C(F)(F)F)c1)c1cnccc1-c1ccc(F)cc1O [Example 48, N-[4-(4-Fluoro-2-hydroxy-phenyl)-pyridin-3-yl]-N-methyl-3,5-bis-trifluoromethyl-benzamide] | 0.307 |
| COC(=O)COc1cc(F)ccc1-c1ccncc1N(C)C(=O)c1cc(C(F)(F)F)cc(C(F)(F)F)c1 [Example 49, (2-{3-[(3,5-Bis-trifluoromethyl-benzoyl)-methyl-amino]-pyridin-4-yl}-5-fluoro-phenoxy)-acetic acid methyl ester] | 0.629 |
| COc1nccc(-c2ccncc2N(C)C(=O)c2cc(C(F)(F)F)cc(C(F)(F)F)c2)c1Cl [Example 50, N-(3′-Chloro-2′-methoxy-[4,4′]bipyridinyl-3-yl)-N-methyl-3,5-bis-trifluoromethyl-benzamide] | 0.678 |
| CN(C(=O)c1cc(C(F)(F)F)cc(C(F)(F)F)c1)c1cnccc1-c1ccc(F)cc1OCCO [Example 52, N-{4-[4-Fluoro-2-(2-hydroxy-ethoxy)-phenyl]-pyridin-3-yl}-N-methyl-3,5-bis-trifluoromethyl-benzamide] | 0.463 |
| CC(C#N)Oc1cc(F)ccc1-c1ccncc1N(C)C(=O)c1cc(C(F)(F)F)cc(C(F)(F)F)c1 (stereo not drawn) [Example 53, N-{4-[2-(Cyano-methyl-methoxy)-4-fluoro-phenyl]-pyridin-3-yl}-N-methyl-3,5-bis-trifluoromethyl-benzamide] | 1.1 |
| COc1cc(-c2ccncc2N(C)C(=O)c2cc(C(F)(F)F)cc(C(F)(F)F)c2)c(OC)nn1 [Example 54, N-[4-(3,6-Dimethoxy-pyridazin-4-yl)-pyridin-3-yl]-N-methyl-3,5-bis-trifluoromethyl-benzamide] | 1.97 |
| CN(C(=O)c1cc(C(F)(F)F)cc(C(F)(F)F)c1)c1cnccc1-c1cc(F)cnc1Cl [Example 55, N-(2-Chloro-5-fluoro-[3,4′]bipyridinyl-3′-yl)-N-methyl-3,5-bis-trifluoromethyl-benzamide] | 0.435 |
| CN(C(=O)c1cc(C(F)(F)F)cc(C(F)(F)F)c1)c1cnccc1-c1ccnc(Cl)c1F [Example 56, N-(2′-Chloro-3′-fluoro-[4,4′]bipyridinyl-3-yl)-N-methyl-3,5-bis-trifluoromethyl-benzamide] | 0.43 |
| Cc1cccnc1-c1ccncc1N(C)C(=O)c1cc(C(F)(F)F)cc(C(F)(F)F)c1 [Example 57, N-Methyl-N-(3-methyl-[2,4′]bipyridinyl-3′-yl)-3,5-bis-trifluoromethyl-benzamide] | 0.351 |
| COc1c(F)cc(F)cc1-c1ccncc1N(C)C(=O)c1cc(C(F)(F)F)cc(C(F)(F)F)c1 [Example 59, N-[4-(3,5-Difluoro-2-methoxy-phenyl)-pyridin-3-yl]-N-methyl-3,5-bis-trifluoromethyl-benzamide] | 0.19 |
| COc1c(-c2ccncc2N(C)C(=O)c2cc(C(F)(F)F)cc(C(F)(F)F)c2)ccc(F)c1F [Example 60, N-[4-(3,4-Difluoro-2-methoxy-phenyl)-pyridin-3-yl]-N-methyl-3,5-bis-trifluoromethyl-benzamide] | 0.114 |
| COc1cccc(-c2ccncc2N(C)C(=O)c2cc(C(F)(F)F)cc(C(F)(F)F)c2)c1F [Example 62, N-[4-(2-Fluoro-3-methoxy-phenyl)-pyridin-3-yl]-N-methyl-3,5-bis-trifluoromethyl-benzamide] | 0.337 |
| CN(C(=O)c1cc(C(F)(F)F)cc(C(F)(F)F)c1)c1cnccc1-c1cccc(F)c1Cl [Example 65, N-[4-(2-Chloro-3-fluoro-phenyl)-pyridin-3-yl]-N-methyl-3,5-bis-trifluoromethyl-benzamide] | 0.102 |
| CN(C(=O)c1cc(C(F)(F)F)cc(C(F)(F)F)c1)c1cnccc1-c1ncccc1F [Example 68, N-(3-Fluoro-[2,4′]bipyridinyl-3′-yl)-N-methyl-3,5-bis-trifluoromethyl-benzamide] | 0.801 |
| COc1cnccc1-c1ccncc1N(C)C(=O)c1cc(C(F)(F)F)cc(C(F)(F)F)c1 [Example 69, N-(3′-Methoxy-[4,4′]bipyridinyl-3-yl)-N-methyl-3,5-bis-trifluoromethyl-benzamide] | 0.377 |
| CN(C(=O)c1cc(C(F)(F)F)cc(C(F)(F)F)c1)c1cnccc1-c1ccncc1F [Example 70, N-(3′-Fluoro-[4,4′]bipyridinyl-3-yl)-N-methyl-3,5-bis-trifluoromethyl-benzamide] | 0.485 |
| CN(C(=O)c1cc(C(F)(F)F)cc(C(F)(F)F)c1)c1cnccc1-c1cccc(Cl)n1 [Example 71, N-(6-Chloro-[2,4′]bipyridinyl-3′-yl)-N-methyl-3,5-bis-trifluoromethyl-benzamide] | 1.54 |
| Cc1cc(F)ccc1-c1cc(Cl)ncc1N(C)C(=O)c1cc(C(F)(F)F)cc(C(F)(F)F)c1 [Example 72, N-[6-Chloro-4-(4-fluoro-2-methyl-phenyl)-pyridin-3-yl]-N-methyl-3,5-bis-trifluoromethyl-benzamide] | 0.593 |

Compounds with a lower EC50, results first:

| EC50 [µM] | Structure (SMILES) |
| --- | --- |
| 0.09 | COc1c(F)cccc1-c1ccncc1N(C)C(=O)c1cc(C(F)(F)F)cc(C(F)(F)F)c1 [Example 41, N-[4-(3-Fluoro-2-methoxy-phenyl)-pyridin-3-yl]-N-methyl-3,5-bis-trifluoromethyl-benzamide] |
| 0.072 | CN(C(=O)c1cc(C(F)(F)F)cc(C(F)(F)F)c1)c1cnccc1-c1cc(F)ccc1F [Example 61, N-[4-(2,5-Difluoro-phenyl)-pyridin-3-yl]-N-methyl-3,5-bis-trifluoromethyl-benzamide] |
| 0.068 | COc1nc(C)ccc1-c1ccncc1N(C)C(=O)c1cc(C(F)(F)F)cc(C(F)(F)F)c1 [Example 47, N-(2-Methoxy-6-methyl-[3,4′]bipyridinyl-3′-yl)-N-methyl-3,5-bis-trifluoromethyl-benzamide] |
| 0.06 | CN(C(=O)c1cc(C(F)(F)F)cc(C(F)(F)F)c1)c1cnccc1-c1ccc(F)cc1OCC#N [Example 51, N-[4-(2-Cyanomethoxy-4-fluoro-phenyl)-pyridin-3-yl]-N-methyl-3,5-bis-trifluoromethyl-benzamide] |
| 0.056 | CN(C(=O)c1cc(C(F)(F)F)cc(C(F)(F)F)c1)c1cnccc1-c1ccc(F)cc1Cl [Example 67, N-[4-(2-Chloro-4-fluoro-phenyl)-pyridin-3-yl]-N-methyl-3,5-bis-trifluoromethyl-benzamide] |
| 0.04 | CN(C(=O)c1cc(C(F)(F)F)cc(C(F)(F)F)c1)c1cnccc1-c1ccc(F)cc1F [Example 37, N-[4-(2,4-Difluoro-phenyl)-pyridin-3-yl]-N-methyl-3,5-bis-trifluoromethyl-benzamide] |
| 0.038 | COc1cc(F)c(F)cc1-c1ccncc1N(C)C(=O)c1cc(C(F)(F)F)cc(C(F)(F)F)c1 [Example 39, N-[4-(4,5-Difluoro-2-methoxy-phenyl)-pyridin-3-yl]-N-methyl-3,5-bis-trifluoromethyl-benzamide] |
| 0.03 | COc1ncc(F)cc1-c1ccncc1N(C)C(=O)c1cc(C(F)(F)F)cc(C(F)(F)F)c1 [Example 44, N-(5-Fluoro-2-methoxy-[3,4′]bipyridinyl-3′-yl)-N-methyl-3,5-bis-trifluoromethyl-benzamide] |
| 0.026 | COc1ccc(F)cc1-c1ccncc1N(C)C(=O)c1cc(C(F)(F)F)cc(C(F)(F)F)c1 [Example 58, N-[4-(5-Fluoro-2-methoxy-phenyl)-pyridin-3-yl]-N-methyl-3,5-bis-trifluoromethyl-benzamide] |
| 0.023 | COc1ccc(F)c(-c2ccncc2N(C)C(=O)c2cc(C(F)(F)F)cc(C(F)(F)F)c2)c1 [Example 63, N-[4-(2-Fluoro-5-methoxy-phenyl)-pyridin-3-yl]-N-methyl-3,5-bis-trifluoromethyl-benzamide] |
| 0.014 | CN(C(=O)c1cc(C(F)(F)F)cc(C(F)(F)F)c1)c1cnccc1-c1c(F)cccc1F [Example 64, N-[4-(2,6-Difluoro-phenyl)-pyridin-3-yl]-N-methyl-3,5-bis-trifluoromethyl-benzamide] |
| 0.011 | COc1cc(F)ccc1-c1ccncc1N(C)C(=O)c1cc(C(F)(F)F)cc(C(F)(F)F)c1 [Example 38, N-[4-(4-Fluoro-2-methoxy-phenyl)-pyridin-3-yl]-N-methyl-3,5-bis-trifluoromethyl-benzamide] |
| 0.008 | COc1cccc(F)c1-c1ccncc1N(C)C(=O)c1cc(C(F)(F)F)cc(C(F)(F)F)c1 [Example 66, N-[4-(2-Fluoro-6-methoxy-phenyl)-pyridin-3-yl]-N-methyl-3,5-bis-trifluoromethyl-benzamide] |
